The term IC50 denotes the midpoint of a concentration-inhibition curve.

The target of the test is biotinylated Avi-POLθ[2-894] (Homo sapiens (Human), UniProt O75417). Briefly: POLθ ATPase assay (ADP-Glo). As to conditions: n=2; read-out: Biochemical ATPase ADPGlo IC50.
Chain of biotinylated Avi-POLθ[2-894] (O75417 2-894): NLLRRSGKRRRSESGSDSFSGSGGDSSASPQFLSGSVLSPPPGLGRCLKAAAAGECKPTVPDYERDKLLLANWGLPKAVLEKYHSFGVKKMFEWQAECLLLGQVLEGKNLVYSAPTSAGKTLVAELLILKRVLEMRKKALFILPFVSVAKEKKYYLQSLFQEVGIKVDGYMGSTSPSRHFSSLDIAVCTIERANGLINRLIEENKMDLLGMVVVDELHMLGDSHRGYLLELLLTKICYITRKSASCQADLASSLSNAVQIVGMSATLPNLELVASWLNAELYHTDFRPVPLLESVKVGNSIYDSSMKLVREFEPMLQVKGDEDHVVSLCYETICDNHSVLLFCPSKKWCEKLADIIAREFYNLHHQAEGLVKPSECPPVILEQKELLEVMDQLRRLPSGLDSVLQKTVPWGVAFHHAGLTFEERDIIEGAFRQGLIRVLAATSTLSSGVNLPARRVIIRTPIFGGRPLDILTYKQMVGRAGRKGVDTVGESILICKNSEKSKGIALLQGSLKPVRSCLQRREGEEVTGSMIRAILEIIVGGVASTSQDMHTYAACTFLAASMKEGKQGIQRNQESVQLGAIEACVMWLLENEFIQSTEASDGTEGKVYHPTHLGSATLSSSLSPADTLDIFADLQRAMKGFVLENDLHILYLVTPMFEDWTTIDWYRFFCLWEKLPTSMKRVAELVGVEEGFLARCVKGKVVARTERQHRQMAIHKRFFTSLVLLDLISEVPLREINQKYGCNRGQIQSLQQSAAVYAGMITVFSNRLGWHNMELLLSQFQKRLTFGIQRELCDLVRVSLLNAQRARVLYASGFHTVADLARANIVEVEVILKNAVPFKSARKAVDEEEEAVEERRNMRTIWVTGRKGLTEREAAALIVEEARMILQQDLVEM
Take `COc1cnc(Cl)cc1-c1cc(C)ncc1C(=O)Nc1nc2c(s1)CN(C(=O)c1cccnn1)C2` [Example 33, 2′-chloro-5′-methoxy-6-methyl-N-(5-(pyridazine-3-carbonyl)-5,6-dihydro-4H-pyrrolo[3,4-d]thiazol-2-yl)-[4,4′-bipyridine]-3-carboxamide]: the IC50 fell in the range of 1 to 15 nM.
With `COc1cnc(Cl)cc1-c1cc(C)ncc1C(=O)Nc1nc2c(s1)CN(C(=O)c1ncc(C)cn1)C2` [Example 34, 2′-chloro-5′-methoxy-6-methyl-N-(5-(5-methylpyrimidine-2-carbonyl)-5,6-dihydro-4H-pyrrolo[3,4-d]thiazol-2-yl)-[4,4′-bipyridine]-3-carboxamide], the IC50 was in the range of 1 to 15 nM.
Regarding `COc1cnc(Cl)cc1-c1cc(C)ncc1C(=O)Nc1nc2c(s1)CN(C(=O)c1cnccn1)C2` [Example 41, 2′-chloro-5′-methoxy-6-methyl-N-(5-(pyrazine-2-carbonyl)-5,6-dihydro-4H-pyrrolo[3,4-d]thiazol-2-yl)-[4,4′-bipyridine]-3-carboxamide], the IC50 was in the range of 1 to 15 nM.
`COc1cnc(Cl)cc1-c1cc(C)ncc1C(=O)Nc1nc2c(s1)CN(C(=O)C1CC(N(C)C)C1)C2` (stereo not shown) [Example 43, 2′-chloro-N-(5-(3-(dimethylamino)cyclobutane-1-carbonyl)-5,6-dihydro-4H-pyrrolo[3,4-d]thiazol-2-yl)-5′-methoxy-6-methyl-[4,4′-bipyridine]-3-carboxamide]: the IC50 is 150 to 900 nM.
With `COc1cnc(Cl)cc1-c1cc(C)ncc1C(=O)Nc1nc2c(s1)CN(C(=O)c1ccnn1CC(F)(F)F)C2` [Example 46, 2′-chloro-5′-methoxy-6-methyl-N-(5-(1-(2,2,2-trifluoroethyl)-1H-pyrazole-5-carbonyl)-5,6-dihydro-4H-pyrrolo[3,4-d]thiazol-2-yl)-[4,4′-bipyridine]-3-carboxamide] the figure was 1 to 15 nM; with `COc1cnc(Cl)cc1-c1cc(C)ncc1C(=O)Nc1nc2c(s1)CN(C(=O)c1ncn(C)n1)C2` [Example 50, 2′-chloro-5′-methoxy-6-methyl-N-(5-(1-methyl-1H-1,2,4-triazole-3-carbonyl)-5,6-dihydro-4H-pyrrolo[3,4-d]thiazol-2-yl)-[4,4′-bipyridine]-3-carboxamide], 1 to 15 nM; with `COc1cnc(Cl)cc1-c1cc(C)ncc1C(=O)Nc1nc2c(s1)CN(C(=O)c1ccn(CC(F)F)n1)C2` [Example 51, 2′-chloro-N-(5-(1-(2,2-difluoroethyl)-1H-pyrazole-3-carbonyl)-5,6-dihydro-4H-pyrrolo[3,4-d]thiazol-2-yl)-5′-methoxy-6-methyl-[4,4′-bipyridine]-3-carboxamide], 1 to 15 nM.
`COc1cnc(Cl)cc1-c1cc(C)ncc1C(=O)Nc1nc2c(s1)CN(C(=O)c1nn(C(F)F)cc1Cl)C2` [Example 55, 2′-chloro-N-(5-(4-chloro-1-(difluoromethyl)-1H-pyrazole-3-carbonyl)-5,6-dihydro-4H-pyrrolo[3,4-d]thiazol-2-yl)-5′-methoxy-6-methyl-[4,4′-bipyridine]-3-carboxamide]: the IC50 was 1 to 15 nM.
For `COc1cnc(Cl)cc1-c1cc(C)ncc1C(=O)Nc1nc2c(s1)CN(C(=O)c1c(C(F)F)nn(C)c1F)C2` [Example 59, 2′-chloro-N-(5-(3-(difluoromethyl)-5-fluoro-1-methyl-1H-pyrazole-4-carbonyl)-5,6-dihydro-4H-pyrrolo[3,4-d]thiazol-2-yl)-5′-methoxy-6-methyl-[4,4′-bipyridine]-3-carboxamide] the value was 1 to 15 nM; for `COc1cnc(Cl)cc1-c1cc(C)ncc1C(=O)Nc1nc2c(s1)CN(C(=O)c1ncon1)C2` [Example 60, N-(5-(1,2,4-oxadiazole-3-carbonyl)-5,6-dihydro-4H-pyrrolo[3,4-d]thiazol-2-yl)-2′-chloro-5′-methoxy-6-methyl-[4,4′-bipyridine]-3-carboxamide], 1 to 15 nM.
As for `COc1cnc(Cl)cc1-c1cc(C)ncc1C(=O)Nc1nc2c(s1)CN(C(=O)c1cn(C)nc1C(F)(F)F)C2` [Example 61, 2′-chloro-5′-methoxy-6-methyl-N-(5-(1-methyl-3-(trifluoromethyl)-1H-pyrazole-4-carbonyl)-5,6-dihydro-4H-pyrrolo[3,4-d]thiazol-2-yl)-[4,4′-bipyridine]-3-carboxamide], the IC50 fell in the range of 1 to 15 nM.
For `CCn1cc(C(=O)N2Cc3nc(NC(=O)c4cnc(C)cc4-c4cc(Cl)ncc4OC)sc3C2)cn1` [Example 62, 2′-chloro-N-(5-(1-ethyl-1H-pyrazole-4-carbonyl)-5,6-dihydro-4H-pyrrolo[3,4-d]thiazol-2-yl)-5′-methoxy-6-methyl-[4,4′-bipyridine]-3-carboxamide] the value was 15 to 50 nM.
With `COc1cnc(Cl)cc1-c1cc(C)ncc1C(=O)Nc1nc2c(s1)CN(C(=O)c1nn(C)cc1C)C2` [Example 65, 2′-chloro-N-(5-(1,4-dimethyl-1H-pyrazole-3-carbonyl)-5,6-dihydro-4H-pyrrolo[3,4-d]thiazol-2-yl)-5′-methoxy-6-methyl-[4,4′-bipyridine]-3-carboxamide] the figure was 1 to 15 nM.
With `CCn1ccc(C(=O)N2Cc3nc(NC(=O)c4cnc(C)cc4-c4cc(Cl)ncc4OC)sc3C2)n1` [Example 69, 2′-chloro-N-(5-(1-ethyl-1H-pyrazole-3-carbonyl)-5,6-dihydro-4H-pyrrolo[3,4-d]thiazol-2-yl)-5′-methoxy-6-methyl-[4,4′-bipyridine]-3-carboxamide] the figure was 1 to 15 nM; with `COc1cnc(Cl)cc1-c1cc(C)ncc1C(=O)Nc1nc2c(s1)CN(C(=O)c1ncccc1O)C2` [Example 71, 2′-chloro-N-(5-(3-hydroxypicolinoyl)-5,6-dihydro-4H-pyrrolo[3,4-d]thiazol-2-yl)-5′-methoxy-6-methyl-[4,4′-bipyridine]-3-carboxamide], 1 to 15 nM.
Consider `COc1cnc(Cl)cc1-c1cc(C)ncc1C(=O)Nc1nc2c(s1)CN(C(=O)c1cccc(OC(F)F)n1)C2` [Example 72, 2′-chloro-N-(5-(6-(difluoromethoxy)picolinoyl)-5,6-dihydro-4H-pyrrolo[3,4-d]thiazol-2-yl)-5′-methoxy-6-methyl-[4,4′-bipyridine]-3-carboxamide], for which the IC50 is 1 to 15 nM.
For `COc1cnc(Cl)cc1-c1cc(C)ncc1C(=O)Nc1nc2c(s1)CN(C(=O)c1ccnn1C(C)C)C2` [Example 75, 2′-chloro-N-(5-(1-isopropyl-1H-pyrazole-5-carbonyl)-5,6-dihydro-4H-pyrrolo[3,4-d]thiazol-2-yl)-5′-methoxy-6-methyl-[4,4′-bipyridine]-3-carboxamide] the value was 1 to 15 nM; for `COc1cnc(Cl)cc1-c1cc(C)ncc1C(=O)Nc1nc2c(s1)CN(C(=O)c1c(C)nn(C)c1C)C2` [Example 76, 2′-chloro-5′-methoxy-6-methyl-N-(5-(1,3,5-trimethyl-1H-pyrazole-4-carbonyl)-5,6-dihydro-4H-pyrrolo[3,4-d]thiazol-2-yl)-[4,4′-bipyridine]-3-carboxamide], 1 to 15 nM; for `COc1cnc(Cl)cc1-c1cc(C)ncc1C(=O)Nc1nc2c(s1)CN(C(=O)c1ncn(C(C)C)n1)C2` [Example 77, 2′-chloro-N-(5-(1-isopropyl-1H-1,2,4-triazole-3-carbonyl)-5,6-dihydro-4H-pyrrolo[3,4-d]thiazol-2-yl)-5′-methoxy-6-methyl-[4,4′-bipyridine]-3-carboxamide], 15 to 50 nM.

These data come from patent publication US20250230171A1 (MOMA Therapeutics, Inc., priority 2023, published 2025).
